Results published in patent US10543215B2, “Combination therapy of cardiac myosin activator and sinus node if current inhibitor” (AMGEN INC., priority 2015, dated 2020).
“And” between values parts separate entries of the source, which are not always exact repeats. Equal values may be shown once.

Tested on: conscious telemetered beagle dogs
Test: Left-ventricular hemodynamic, mechanical and timing indices by radio-telemetry before and during IV OM or vehicle, on repeated oral IVA or placebo
Assay type: in vivo, beagle dog
Description: Healthy male beagle dogs (n=7) instrumented with radio-telemetry units providing continuous single-lead electrocardiogram (ECG), as well as systemic (arterial, AoP) and left-ventricular (LVP) pressure signals were used for this study. Following sling acclimation, the animals were assigned to receive repeated oral (via gavage) treatments with either Ivabradine (IVA, 5 mg/kg bid) or a volume-matched placebo-control (sterile water, CTRL) for 5 days, administered at a dose volume of 10 mL/kg, in a cross over design.
The animals were sling-restrained and were subjected to acute intravenous administration of either sterile water (VEH, on Days 4 and 11 of dosing) or Omecamtiv Mecarbil (OM, on Days 5 and 12 of dosing). OM treatments were performed over a 3-hour infusion duration, following a dose-escalation design targeting plasma concentrations of 600 and 1000 ng/mL (each over 90 minutes, with a 30 minute loading infusion followed by a 60 minute maintenance infusion) for a cumulative dose of 5.293 mg/kg (as shown in Table A below). The IV vehicle treatments were time- and volume-matched.
Telemetered data were collected continuously for at least 90 minutes prior to and during dosing, as well as for at least 20 hours post-dose. The LVP and ECG signals were digitized at a sampling rate of at least 1000 Hz. The data were analyzed for heart rate (HR) and left-ventricular hemodynamic/mechanical indices that were obtained from the pressure waveform, including mean systolic (MSP) and end-diastolic (filling, EDP) pressures, the peak rates of pressure change during systole/diastole (dP/dtmax/min), as well as the time-constant of relaxation (tau) and a contractility index (CI: dP/dtmax normalized by the pressure at dP/dtmax). The data were also analyzed for systolic and diastolic intervals, including the estimated durations of the systolic ejection (SET), contraction (CT), active relaxation (RT) and filling intervals (FT), as well as the systolic-to-diastolic interval ratio (S/D: SET/RT+FT), which were derived from the left-ventricular pressure waveform.
The left-ventricular indices were evaluated only in the sling-restrained animals before and during IV treatment with OM or vehicle. Cardiovascular responses at each dose level were monitored for up to 90 minutes, i.e., over 3 hours total (during IV dosing of VEH and OM on Days 4, 5, 11, and 12 in the dose administration paradigm). Overall, in-sling cardiovascular data are reported at the following pre-determined/targeted time points: prior to dosing (i.e., at baseline, PRE) and approximately at the end of each infusion period (i.e., up to 4 time points during dosing, D1 to D4). Signals were analyzed continuously in 5-minute epochs, with pre-administration (i.e., PRE) values representing the overall mean over at least 5-epochs (i.e., 25 minutes) taken immediately prior to the onset of dosing, while during-dosing values reflect 5-minute averages (i.e., 1 epoch) taken prior to the (estimated) termination of each infusion. Data are presented as both means with standard deviations in summarizing tables/figure; beat-to-beat plots against heart rate are part of the study file.

[1] = D1, end of 30-min loading infusion, target OM 600 ng/mL
[2] = D2, end of 60-min maintenance infusion, target OM 600 ng/mL
[3] = D3, end of 30-min loading infusion, target OM 1000 ng/mL
[4] = D4, end of 60-min maintenance infusion, target OM 1000 ng/mL
[5] = PRE, before IV dosing (baseline)

Compound: COC(=O)N1CCN(Cc2cccc(NC(=O)Nc3ccc(C)nc3)c2F)CC1 [OM, methyl 4-(2-fluoro-3-(3-(6-methylpyridin-3-yl)ureido)benzyl)piperazine-1-carboxylate]
- CT % vs. PRE [1]: −3%
- CT (contraction time) [1]: 65.9 ms
- EDP % vs. PRE [1]: −24%
- EDP (left-ventricular end-diastolic pressure) [1]: 9.8 mmHg
- FT % vs. PRE [1]: 23%
- FT (filling time) [1]: 425 ms
- HR % vs. PRE [1]: −14%
- HR (heart rate) [1]: 86 bpm
- MSP % vs. PRE [1]: −2%
- MSP (left-ventricular mean systolic pressure) [1]: 127 mmHg
- RT % vs. PRE [1]: 13%
- RT (relaxation time) [1]: 104 ms
- S/D % vs. PRE [1]: 18%
- S/D (systolic to diastolic ratio, SET/RT + FT) [1]: 0.41
- SET % vs. PRE [1]: 33%
- SET (systolic ejection time) [1]: 207 ms
- Tau % vs. PRE [1]: 19 ± 3%
- Tau (left-ventricular relaxation time-constant) [1]: 36.7 ± 3.6 ms
- Vmax % vs. PRE [1]: 3 ± 1%
- Vmax (estimated maximal velocity of myocardial contractile-element shortening) [1]: 36.0 ± 1.7 s⁻¹
- dP/dtmax % vs. PRE [1]: −6%
- dP/dtmax (peak rate of LV pressure change during systole) [1]: 2,243 mmHg/s
- dP/dtmin % vs. PRE [1]: −12%
- dP/dtmin (peak rate of LV pressure change during diastole) [1]: −1,910 mmHg/s
- CT % vs. PRE [2]: −2%
- CT (contraction time) [2]: 66.7 ms
- EDP % vs. PRE [2]: −33%
- EDP (left-ventricular end-diastolic pressure) [2]: 8.5 mmHg
- FT % vs. PRE [2]: 2%
- FT (filling time) [2]: 321 ms
- HR % vs. PRE [2]: 0%
- HR (heart rate) [2]: 99 bpm
- MSP % vs. PRE [2]: 0%
- MSP (left-ventricular mean systolic pressure) [2]: 130 mmHg
- RT % vs. PRE [2]: 20%
- RT (relaxation time) [2]: 110 ms
- S/D (systolic to diastolic ratio, SET/RT + FT) [2]: 0.5
- SET (systolic ejection time) [2]: 214 ms
- Tau % vs. PRE [2]: 33 ± 5%
- Tau (left-ventricular relaxation time-constant) [2]: 41.1 ± 4.7 ms
- Vmax % vs. PRE [2]: 7 ± 2%
- Vmax (estimated maximal velocity of myocardial contractile-element shortening) [2]: 37.2 ± 1.6 s⁻¹
- dP/dtmax % vs. PRE [2]: −1±4% and −1%
- dP/dtmax (peak rate of LV pressure change during systole) [2]: 2,356 mmHg/s
- dP/dtmin % vs. PRE [2]: −19%
- dP/dtmin (peak rate of LV pressure change during diastole) [2]: −1,759 mmHg/s
- CT % vs. PRE [3]: −1%
- CT (contraction time) [3]: 67.0 ms
- EDP % vs. PRE [3]: −13%
- EDP (left-ventricular end-diastolic pressure) [3]: 10.8 mmHg
- FT % vs. PRE [3]: −27%
- FT (filling time) [3]: 251 ms
- HR % vs. PRE [3]: 11%
- HR (heart rate) [3]: 112 bpm
- MSP % vs. PRE [3]: 0%
- MSP (left-ventricular mean systolic pressure) [3]: 130 mmHg
- RT % vs. PRE [3]: 24%
- RT (relaxation time) [3]: 114 ms
- S/D % vs. PRE [3]: 73%
- S/D (systolic to diastolic ratio, SET/RT + FT) [3]: 0.60
- SET % vs. PRE [3]: 34%
- SET (systolic ejection time) [3]: 208 ms
- Tau % vs. PRE [3]: 53 ± 7%
- Tau (left-ventricular relaxation time-constant) [3]: 47.6 ± 6.5 ms
- Vmax % vs. PRE [3]: 2 ± 2%
- Vmax (estimated maximal velocity of myocardial contractile-element shortening) [3]: 35.6 ± 2.0 s⁻¹
- dP/dtmax % vs. PRE [3]: −3%
- dP/dtmax (peak rate of LV pressure change during systole) [3]: 2,319 mmHg/s
- dP/dtmin % vs. PRE [3]: −26%
- dP/dtmin (peak rate of LV pressure change during diastole) [3]: −1,608 mmHg/s
- CT % vs. PRE [4]: 5%
- CT (contraction time) [4]: 71.0 ms
- EDP % vs. PRE [4]: 46%
- EDP (left-ventricular end-diastolic pressure) [4]: 17.8 mmHg
- FT % vs. PRE [4]: −71%
- FT (filling time) [4]: 85 ms
- HR (heart rate) [4]: 162 bpm
- MSP % vs. PRE [4]: −15%
- MSP (left-ventricular mean systolic pressure) [4]: 111 mmHg
- RT % vs. PRE [4]: 1%
- RT (relaxation time) [4]: 93 ms
- S/D (systolic to diastolic ratio, SET/RT + FT) [4]: 1.06
- SET % vs. PRE [4]: 5%
- SET (systolic ejection time) [4]: 162 ms
- Tau (left-ventricular relaxation time-constant) [4]: 54.7 ± 9.7 ms
- Vmax % vs. PRE [4]: −19±8%
- Vmax (estimated maximal velocity of myocardial contractile-element shortening) [4]: 28.4 ± 3.4 s⁻¹
- dP/dtmax % vs. PRE [4]: −23%
- dP/dtmax (peak rate of LV pressure change during systole) [4]: 1,844 mmHg/s
- dP/dtmin % vs. PRE [4]: −41%
- dP/dtmin (peak rate of LV pressure change during diastole) [4]: −1,288 mmHg/s
- CT (contraction time) [5]: 67.9 ± 0.7 ms
- EDP (left-ventricular end-diastolic pressure) [5]: 12.3 mmHg
- FT (filling time) [5]: 370 ± 50 ms
- HR (heart rate) [5]: 102 bpm
- MSP (left-ventricular mean systolic pressure) [5]: 131 mmHg
- RT (relaxation time) [5]: 92 ± 3 ms
- S/D (systolic to diastolic ratio, SET/RT + FT) [5]: 0.36
- SET (systolic ejection time) [5]: 156 ± 7 ms
- Tau (left-ventricular relaxation time-constant) [5]: 30.8 ± 2.8 ms
- Vmax (estimated maximal velocity of myocardial contractile-element shortening) [5]: 34.9 ± 1.6 s⁻¹
- dP/dtmax (peak rate of LV pressure change during systole) [5]: 2,401 mmHg/s
- dP/dtmin (peak rate of LV pressure change during diastole) [5]: −2,167 mmHg/s
